Data published in ChEMBL document CHEMBL5463723, “Data for DCP probe BIBO3304” (2023).

Tests used:
[1] = biological target: Cannabinoid receptor 1 (Homo sapiens) (UniProt P21554); assay: CB1 Eurofins-Cerep binding assay; details: Compound concentration 10.0 uM
[2] = biological target: L-type calcium channel (dihydropyridine site), Cav1.2 alpha-1C (Rattus norvegicus, UniProt P22002); assay: Inhibitor of CA+/DHPSI/R in the Eurofins Cerep SafetyScreen44 (BI) by Radioactive Assay (Cerep_161); format: protein assay; set-up: scale not given: the % may be the effect or the level left; details: rat brain, probe [3H](+)PN200-110, compound concentration 10 uM, read-out: % Ctrl
[3] = biological target: Cannabinoid receptor 2 (Homo sapiens) (UniProt P34972); assay: Activity against CB2/PERIPH/H in the Eurofins Cerep SafetyScreen44 (BI) by Radioactive Assay (Cerep_37); details: Compound concentration 10.0 uM
[4] = biological target: Cholecystokinin receptor type A (Homo sapiens) (UniProt P32238); assay: CCK1 (CCKA) Eurofins-Cerep binding assay; set-up: ligand concentration 0.08 nM; details: Compound concentration 10.0 uM
Chain of Cholecystokinin receptor type A (Homo sapiens) (P32238 whole entry): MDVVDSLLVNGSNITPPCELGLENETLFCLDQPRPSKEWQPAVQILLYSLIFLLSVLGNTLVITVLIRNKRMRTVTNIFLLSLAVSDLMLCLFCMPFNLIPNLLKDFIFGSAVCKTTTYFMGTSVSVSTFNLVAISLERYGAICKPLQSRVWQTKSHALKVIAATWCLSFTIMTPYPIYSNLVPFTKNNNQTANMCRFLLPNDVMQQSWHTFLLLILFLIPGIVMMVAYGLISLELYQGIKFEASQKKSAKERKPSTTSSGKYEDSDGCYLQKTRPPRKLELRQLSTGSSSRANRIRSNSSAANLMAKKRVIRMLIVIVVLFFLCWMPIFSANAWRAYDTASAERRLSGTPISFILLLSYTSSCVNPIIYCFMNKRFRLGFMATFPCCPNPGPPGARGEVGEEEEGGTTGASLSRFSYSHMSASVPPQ

[5] = biological target: Delta-type opioid receptor (Homo sapiens) (UniProt P41143); assay: delta (DOP) Eurofins-Cerep binding assay; set-up: ligand concentration 0.5 nM; details: Compound concentration 10.0 uM
[6] = biological target: Histamine H1 receptor (Homo sapiens) (UniProt P35367); assay: H1 Eurofins-Cerep binding assay; set-up: ligand concentration 1 nM; details: Compound concentration 10.0 uM
[7] = species on record: Rattus norvegicus; assay: KV channel Eurofins-Cerep binding assay; set-up: ligand concentration 0.01 nM; details: Compound concentration 10.0 uM
[8] = biological target: Tyrosine-protein kinase Lck (Homo sapiens) (UniProt P06239); assay: Inhibitor of LCK_CE in the Eurofins Cerep SafetyScreen44 (BI) by lanthanide chelation excitation (Cerep_2906); details: Compound concentration 10.0 uM
Chain of Tyrosine-protein kinase Lck (Homo sapiens) (P06239 2-509 limits assumed): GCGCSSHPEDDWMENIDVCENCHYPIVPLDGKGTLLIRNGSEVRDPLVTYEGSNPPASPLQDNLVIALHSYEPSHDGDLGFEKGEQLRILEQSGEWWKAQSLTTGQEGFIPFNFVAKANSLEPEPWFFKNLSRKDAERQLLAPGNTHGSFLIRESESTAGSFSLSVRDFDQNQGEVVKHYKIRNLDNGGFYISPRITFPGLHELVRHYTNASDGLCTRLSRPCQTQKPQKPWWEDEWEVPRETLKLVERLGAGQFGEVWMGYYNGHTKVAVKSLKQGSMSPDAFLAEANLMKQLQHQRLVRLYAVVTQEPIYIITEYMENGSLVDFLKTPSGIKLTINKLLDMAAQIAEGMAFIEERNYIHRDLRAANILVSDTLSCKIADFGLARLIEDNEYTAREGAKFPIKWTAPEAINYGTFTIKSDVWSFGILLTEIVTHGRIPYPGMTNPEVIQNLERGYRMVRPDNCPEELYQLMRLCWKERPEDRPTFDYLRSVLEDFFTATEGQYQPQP

[9] = biological target: Muscarinic acetylcholine receptor M3 (Homo sapiens) (UniProt P20309); assay: M3 Eurofins-Cerep binding assay; set-up: ligand concentration 0.2 nM; details: Compound concentration 10.0 uM
Chain of Muscarinic acetylcholine receptor M3 (Homo sapiens) (P20309 whole entry, looked up): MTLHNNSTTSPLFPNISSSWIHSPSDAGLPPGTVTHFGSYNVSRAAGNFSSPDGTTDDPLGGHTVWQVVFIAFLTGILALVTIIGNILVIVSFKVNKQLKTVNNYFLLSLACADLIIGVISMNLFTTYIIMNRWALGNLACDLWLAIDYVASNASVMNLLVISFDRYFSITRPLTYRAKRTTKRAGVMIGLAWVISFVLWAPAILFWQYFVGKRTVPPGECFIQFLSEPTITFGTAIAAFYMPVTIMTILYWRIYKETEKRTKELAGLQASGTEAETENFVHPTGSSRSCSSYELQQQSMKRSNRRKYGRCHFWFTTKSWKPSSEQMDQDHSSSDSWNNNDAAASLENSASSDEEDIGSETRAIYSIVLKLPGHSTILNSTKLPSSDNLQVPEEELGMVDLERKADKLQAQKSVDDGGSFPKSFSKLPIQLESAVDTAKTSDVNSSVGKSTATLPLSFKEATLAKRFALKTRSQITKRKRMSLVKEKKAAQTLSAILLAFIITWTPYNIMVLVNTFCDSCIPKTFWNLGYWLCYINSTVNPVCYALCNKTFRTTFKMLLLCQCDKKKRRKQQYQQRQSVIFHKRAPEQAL

[10] = biological target: MAO-A (Homo sapiens, UniProt P21397); assay: Agonist activity in the Eurofins Cerep SafetyScreen44 (BI) against MAO-A_ANTAG by Scintillation counting (Cerep_443); set-up: scale not given: the % may be the effect or the level left; details: rat; compound concentration 10 uM; target entry is the homologue from another species; read-out: % Ctrl
[11] = biological target: Neuropeptide Y receptor type 2 (Rattus norvegicus, UniProt Q9ERC0); assay: Radioligand binding assay (NPY2R, rat hippocampus); format: tissue-based
[12] = biological target: Serotonin 2 (5-HT2) receptor (Rattus norvegicus) (UniProt P30994+P08909+P14842); assay: Activity against 5HT2/R in the Eurofins Panlabs screen (BI) by Radioactive Assay; format: protein assay; details: Compound concentration 10.0 uM
[13] = biological target: Adenosine receptor A2a (Rattus norvegicus) (UniProt P30543); assay: Activity against A2A/R in the Eurofins Panlabs screen (BI) by Radioactive Assay; details: Compound concentration 10.0 uM
Chain of Adenosine receptor A2a (Rattus norvegicus) (P30543 whole entry): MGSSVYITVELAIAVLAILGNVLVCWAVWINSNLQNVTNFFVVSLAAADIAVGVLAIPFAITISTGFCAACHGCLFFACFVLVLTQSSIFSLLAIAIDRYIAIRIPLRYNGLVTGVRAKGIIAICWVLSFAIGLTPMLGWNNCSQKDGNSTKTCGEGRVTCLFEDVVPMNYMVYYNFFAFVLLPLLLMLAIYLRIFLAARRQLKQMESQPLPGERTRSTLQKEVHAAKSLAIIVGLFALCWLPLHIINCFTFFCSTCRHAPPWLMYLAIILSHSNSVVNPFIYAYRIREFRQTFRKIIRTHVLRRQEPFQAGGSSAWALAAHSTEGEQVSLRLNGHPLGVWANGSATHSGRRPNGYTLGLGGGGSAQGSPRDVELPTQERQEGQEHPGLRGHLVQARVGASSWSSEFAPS

[14] = biological target: Acetyl-coenzyme A synthetase, cytoplasmic (Homo sapiens) (UniProt Q9NR19); assay: Inhibitor of ACOASYN in the Eurofins Panlabs screen (BI) by Radioactive Assay; details: Compound concentration 100.0 uM
[15] = biological target: Alpha-1D adrenergic receptor (Rattus norvegicus) (UniProt P23944); assay: Activity against ALPHA1/R in the Eurofins Panlabs screen (BI) by Others; details: Compound concentration 10.0 uM
Chain of Alpha-1D adrenergic receptor (Rattus norvegicus) (P23944 whole entry): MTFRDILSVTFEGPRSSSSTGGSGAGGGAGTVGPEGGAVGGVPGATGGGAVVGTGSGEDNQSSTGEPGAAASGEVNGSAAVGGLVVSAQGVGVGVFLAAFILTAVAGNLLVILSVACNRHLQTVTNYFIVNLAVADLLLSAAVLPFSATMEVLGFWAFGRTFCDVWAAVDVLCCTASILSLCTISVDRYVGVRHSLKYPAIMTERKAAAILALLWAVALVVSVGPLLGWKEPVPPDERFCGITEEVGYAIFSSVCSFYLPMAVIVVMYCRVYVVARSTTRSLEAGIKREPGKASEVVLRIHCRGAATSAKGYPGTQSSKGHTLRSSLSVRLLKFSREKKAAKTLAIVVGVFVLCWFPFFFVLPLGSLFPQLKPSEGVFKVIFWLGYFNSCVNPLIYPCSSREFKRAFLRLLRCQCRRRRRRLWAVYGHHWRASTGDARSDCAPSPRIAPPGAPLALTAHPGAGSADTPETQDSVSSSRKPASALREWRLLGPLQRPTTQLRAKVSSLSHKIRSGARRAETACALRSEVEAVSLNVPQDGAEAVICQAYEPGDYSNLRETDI

[16] = biological target: Type-1 angiotensin II receptor (Oryctolagus cuniculus) (UniProt P34976); assay: Activity against ATII/RB in the Eurofins Panlabs screen (BI) by Radioactive Assay; details: Compound concentration 10.0 uM
[17] = biological target: B2 bradykinin receptor (Cavia porcellus) (UniProt O70526); assay: Activity against B2/GP in the Eurofins Panlabs screen (BI) by Radioactive Assay; details: Compound concentration 10.0 uM
[18] = biological target: Beta-2 adrenergic receptor (Rattus norvegicus) (UniProt P10608); assay: Activity against BETA2/R in the Eurofins Panlabs screen (BI) by Radioactive Assay; details: Compound concentration 10.0 uM
[19] = species on record: Rattus norvegicus; assay: Inhibitor of CALCINEUPP2B in the Eurofins Panlabs screen (BI) by Radioactive Assay; details: Compound concentration 10.0 uM
[20] = biological target: Calpain-1 catalytic subunit (Homo sapiens) (UniProt P07384); assay: Inhibitor of CALPAIN in the Eurofins Panlabs screen (BI) by FI - fluorescence intensity; details: Compound concentration 10.0 uM
[21] = biological target: Cholecystokinin receptor type A (Rattus norvegicus) (UniProt P30551); assay: Activity against CCKA/R in the Eurofins Panlabs screen (BI) by Radioactive Assay; details: Compound concentration 10.0 uM
Chain of Cholecystokinin receptor type A (Rattus norvegicus) (P30551 whole entry): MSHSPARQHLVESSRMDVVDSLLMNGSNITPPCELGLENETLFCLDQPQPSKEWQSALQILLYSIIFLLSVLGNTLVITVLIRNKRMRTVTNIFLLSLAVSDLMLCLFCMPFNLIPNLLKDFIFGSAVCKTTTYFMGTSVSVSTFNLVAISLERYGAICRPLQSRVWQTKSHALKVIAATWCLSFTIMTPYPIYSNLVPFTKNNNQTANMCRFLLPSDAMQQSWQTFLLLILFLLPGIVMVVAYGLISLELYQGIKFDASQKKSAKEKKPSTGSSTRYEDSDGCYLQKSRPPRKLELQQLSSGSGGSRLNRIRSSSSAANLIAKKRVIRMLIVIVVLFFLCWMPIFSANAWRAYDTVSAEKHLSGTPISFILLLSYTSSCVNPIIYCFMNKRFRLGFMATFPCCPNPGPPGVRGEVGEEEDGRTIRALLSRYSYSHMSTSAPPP

[22] = biological target: D(2) dopamine receptor (Rattus norvegicus) (UniProt P61169); assay: Activity against D2/RAC/R in the Eurofins Panlabs screen (BI); details: Compound concentration 10.0 uM
[23] = biological target: D(3) dopamine receptor (Homo sapiens) (UniProt P35462); assay: Activity against D3/HU in the Eurofins Panlabs screen (BI) by Scintillation counting; details: Compound concentration 10.0 uM
[24] = biological target: D(1B) dopamine receptor (Homo sapiens) (UniProt P21918); assay: Activity against D5/HU in the Eurofins Panlabs screen (BI) by Radioactive Assay; details: Compound concentration 10.0 uM
[25] = biological target: Epidermal growth factor receptor (Homo sapiens) (UniProt P00533); assay: Inhibitor of EGFRTYRKIN in the Eurofins Panlabs screen (BI) by Fluorimetry; details: Compound concentration 10.0 uM
[26] = biological target: Endothelin-1 receptor (Rattus norvegicus) (UniProt P26684); assay: Activity against ETA/R in the Eurofins Panlabs screen (BI) by Radioactive Assay; details: Compound concentration 10.0 uM
[27] = biological target: Gamma-aminobutyric acid receptor subunit alpha-1 (Rattus norvegicus) (UniProt P62813); assay: Activity against GABAACL+ in the Eurofins Panlabs screen (BI) by Radioactive Assay; details: Compound concentration 10.0 uM
Chain of Gamma-aminobutyric acid receptor subunit alpha-1 (Rattus norvegicus) (P62813 whole entry): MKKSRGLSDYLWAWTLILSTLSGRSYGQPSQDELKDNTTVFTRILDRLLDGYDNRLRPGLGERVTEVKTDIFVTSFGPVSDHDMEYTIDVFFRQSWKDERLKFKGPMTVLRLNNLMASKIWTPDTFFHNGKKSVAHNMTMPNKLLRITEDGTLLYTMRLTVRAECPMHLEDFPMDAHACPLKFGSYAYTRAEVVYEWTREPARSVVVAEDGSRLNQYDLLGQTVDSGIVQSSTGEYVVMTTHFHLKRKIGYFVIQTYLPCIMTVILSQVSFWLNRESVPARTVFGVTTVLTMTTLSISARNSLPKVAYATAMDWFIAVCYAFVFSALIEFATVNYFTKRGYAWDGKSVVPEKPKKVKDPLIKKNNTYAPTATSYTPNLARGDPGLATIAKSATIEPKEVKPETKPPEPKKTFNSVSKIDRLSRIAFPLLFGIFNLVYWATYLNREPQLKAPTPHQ

[28] = biological target: Histamine H3 receptor (Rattus norvegicus) (UniProt Q9QYN8); assay: Activity against H3/R in the Eurofins Panlabs screen (BI) by […]; details: Compound concentration 10.0 uM
Chain of Histamine H3 receptor (Rattus norvegicus) (Q9QYN8 whole entry): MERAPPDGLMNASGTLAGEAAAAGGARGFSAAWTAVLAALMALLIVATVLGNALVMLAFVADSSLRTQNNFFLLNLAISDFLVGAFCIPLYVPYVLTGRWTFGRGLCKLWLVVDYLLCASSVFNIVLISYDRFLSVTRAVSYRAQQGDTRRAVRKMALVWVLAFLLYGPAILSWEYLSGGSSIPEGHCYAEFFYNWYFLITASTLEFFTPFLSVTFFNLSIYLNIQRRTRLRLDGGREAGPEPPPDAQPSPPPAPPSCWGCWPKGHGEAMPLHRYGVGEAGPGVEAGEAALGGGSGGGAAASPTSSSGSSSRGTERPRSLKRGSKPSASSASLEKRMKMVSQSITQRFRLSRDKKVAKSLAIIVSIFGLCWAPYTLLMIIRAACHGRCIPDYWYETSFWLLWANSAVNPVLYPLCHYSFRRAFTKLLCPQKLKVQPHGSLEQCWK

[29] = biological target: Interleukin-1 receptor type 1 (Mus musculus) (UniProt P13504); assay: Activity against IL-1ALPHA/M in the Eurofins Panlabs screen (BI) by Radioactive Assay; details: Compound concentration 10.0 uM
[30] = biological target: Cysteinyl leukotriene receptor 1 (Cavia porcellus) (UniProt Q2NNR5); assay: Activity against LTD4/GP in the Eurofins Panlabs screen (BI) by Radioactive Assay; details: Compound concentration 10.0 uM
[31] = biological target: Glutamate NMDA receptor (Rattus norvegicus) (UniProt P35439+Q00959+Q00960+Q00961+Q62645+Q8VHN2+Q9R1M7); assay: Agonist activity in the Eurofins Panlabs screen (BI) against NMDAAGSI/R by Radioactive Assay; format: protein-complex assay; details: Compound concentration 10.0 uM
[32] = biological target: Opioid receptor (Rattus norvegicus) (UniProt P33533+P34975+P33535); assay: Activity against OPIAT/NS in the Eurofins Panlabs screen (BI) by Radioactive Assay; format: protein assay; details: Compound concentration 10.0 uM
[33] = biological target: Transmembrane protein 97 (Cavia porcellus) (UniProt H0V073); assay: Activity against SIGMA2/GP in the Eurofins Panlabs screen (BI) by Radioactive Assay; details: Compound concentration 10.0 uM
[34] = biological target: Somatostatin receptor type 5 (Mus musculus) (UniProt O08858); assay: Activity against SOMATOS/MO in the Eurofins Panlabs screen (BI) by Radioactive Assay; details: Compound concentration 10.0 uM
[35] = biological target: Tumor necrosis factor (Homo sapiens) (UniProt P01375); assay: Activity against TNFA/HU/HELA in the Eurofins Panlabs screen (BI) by Radioactive Assay; details: Compound concentration 10.0 uM
Chain of Tumor necrosis factor (Homo sapiens) (P01375 whole entry): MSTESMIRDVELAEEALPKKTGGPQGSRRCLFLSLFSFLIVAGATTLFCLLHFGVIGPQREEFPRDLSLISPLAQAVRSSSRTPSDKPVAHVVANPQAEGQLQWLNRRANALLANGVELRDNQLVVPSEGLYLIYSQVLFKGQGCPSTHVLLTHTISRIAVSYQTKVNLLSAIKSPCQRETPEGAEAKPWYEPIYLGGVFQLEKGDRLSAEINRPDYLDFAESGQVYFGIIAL

[36] = biological target: Thyrotropin-releasing hormone receptor (Rattus norvegicus) (UniProt Q01717); assay: Activity against TRH/R in the Eurofins Panlabs screen (BI) by Radioactive Assay; details: Compound concentration 10.0 uM
[37] = biological target: Vasopressin V1a receptor (Rattus norvegicus) (UniProt P30560); assay: Activity against V1/RA in the Eurofins Panlabs screen (BI) by Radioactive Assay; details: Compound concentration 10.0 uM
Chain of Vasopressin V1a receptor (Rattus norvegicus) (P30560 whole entry, looked up): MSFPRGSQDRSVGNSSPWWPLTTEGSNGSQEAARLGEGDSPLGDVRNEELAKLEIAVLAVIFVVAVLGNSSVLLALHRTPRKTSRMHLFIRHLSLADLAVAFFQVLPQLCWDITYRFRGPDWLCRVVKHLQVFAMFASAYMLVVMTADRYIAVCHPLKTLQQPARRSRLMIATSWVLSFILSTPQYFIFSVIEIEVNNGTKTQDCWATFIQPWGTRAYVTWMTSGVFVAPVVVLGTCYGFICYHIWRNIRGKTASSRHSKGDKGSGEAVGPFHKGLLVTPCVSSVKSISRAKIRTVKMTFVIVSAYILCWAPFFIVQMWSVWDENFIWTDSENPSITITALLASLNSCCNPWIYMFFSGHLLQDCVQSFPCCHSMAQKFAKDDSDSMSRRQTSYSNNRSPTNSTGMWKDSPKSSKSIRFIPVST

[38] = biological target: Vasoactive intestinal peptide receptor 1 (Cavia porcellus) (UniProt A0A286XMQ0); assay: Activity against VIP1/GP in the Eurofins Panlabs screen (BI) by Radioactive Assay; details: Compound concentration 10.0 uM

Chain of Cannabinoid receptor 1 (Homo sapiens) (P21554 whole entry): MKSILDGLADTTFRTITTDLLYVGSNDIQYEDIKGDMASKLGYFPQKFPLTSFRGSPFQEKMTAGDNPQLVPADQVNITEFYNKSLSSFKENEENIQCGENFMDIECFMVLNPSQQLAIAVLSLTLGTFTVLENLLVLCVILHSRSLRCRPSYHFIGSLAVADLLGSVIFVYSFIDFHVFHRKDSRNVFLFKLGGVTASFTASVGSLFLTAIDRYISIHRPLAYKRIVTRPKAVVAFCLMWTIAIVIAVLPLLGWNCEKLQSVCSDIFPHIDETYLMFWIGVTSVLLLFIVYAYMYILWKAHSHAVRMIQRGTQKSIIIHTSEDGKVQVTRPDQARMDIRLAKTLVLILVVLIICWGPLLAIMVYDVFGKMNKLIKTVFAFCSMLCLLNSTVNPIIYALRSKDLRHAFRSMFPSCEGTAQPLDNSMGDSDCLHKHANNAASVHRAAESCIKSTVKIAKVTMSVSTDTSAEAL

N=C(N)NCCC[C@@H](NC(=O)C(c1ccccc1)c1ccccc1)C(=O)NCc1ccc(CNC(N)=O)cc1
> 10 µM (not active): IC50 [11]
97% (not active): activity at 10 µM [10]
inactive: residual activity [1] 107% | residual activity [3] 91% | residual activity [4] 66% | residual activity [5] 80% | residual activity [6] 75% | residual activity [7] 100% | residual activity [8] 86% | residual activity [9] 87% | residual activity [12] 92% | residual activity [13] 97% | residual activity [14] 100% | residual activity [15] 91% | residual activity [16] 99% | residual activity [17] 115% | residual activity [18] 77% | residual activity [19] 90% | residual activity [20] 108% | residual activity [21] 87% | residual activity [22] 84% | residual activity [23] 98% | residual activity [24] 94% | residual activity [25] 83% | residual activity [26] 88% | residual activity [27] 84% | residual activity [28] 104% | residual activity [29] 88% | residual activity [30] 109% | residual activity [31] 89% | residual activity [32] 114% | residual activity [33] 109% | residual activity [34] 103% | residual activity [35] 114% | residual activity [36] 84% | residual activity [37] 98% | residual activity [38] 88%
70% (not active): activity at 10 µM [2]
